Legend:
[1] = Stability in mouse liver microsomal preparations; format: in vitro ADME; conditions: liver microsomes, with and without 1 mM NADPH (not said which), read-out: Mouse Liver Microsomes t1/2
Procedure: (§1) Relative stability of Example Compound Nos. 1 through 60 in mouse plasma and mouse liver microsomal preparations.
(§2) Certain Example Compounds were each added to a final concentration of 1 μM to 1 mL of each of mouse plasma and mouse liver microsomal preparations (with and without 1 mM NADPH). Stability assays were run in duplicate and were sampled at 0, 5, 15, 30, 60 and 120 minutes as follows: one hundred microliter aliquots of samples were removed at the specified sampling times, and the reaction was quenched with 400 μL of acetonitrile.
(§3) Samples were analyzed by HPLC-ESI-MS/MS by measuring the peak area of both the starting Example Compound and parent compound (i.e., either Parent Compound A or Parent Compound B) that were created by removal of the Prodrug Moiety (as defined in Section 6 herein).

[2] = Kinetic solubility (iSol Explorer method); format: physicochemical; conditions: system solution buffer (pION), aqueous buffer, kinetic from dmso stock
Procedure: Kinetic solubility was determined using the iSol Explorer method (pION Inc.; Woburn, Mass.). Certain Example Compounds were dissolved in dimethylsulfoxide (DMSO; >99.9% ACS spectrophotometric grade; Sigma-Aldrich, St. Louis, Mo.) to a concentration of 100 mM. The DMSO stock was diluted 1:100 in system solution buffer (pION Inc. Wobum Mass.) that had been adjusted to the desired pH (5.0, 6.8, and 7.4) with either HCl or NaOH. The diluted samples in the desired buffer were incubated for 15 minutes at room temperature and filtered using 96-well plate with 0.25 mm glass fiber/1.2 μm polyethersulfone filter bottoms (Corning, Inc.; Corning, N.Y.). The filtrate is transferred to a second 96-well plate and read on a SpectraMAX 190 (Molecular Devices; Sunnyvale, Calif.) scanning from 190 to 498 nm. The data are analyzed with Sol Explorer Command version 2.2, (pION Inc. Woburn, Mass.) and the concentration reported in molarity and/or mass per volume.

[3] = Stability assessment / semi-quantitative hygroscopicity in a relative humidity (RH) chamber; format: physicochemical; conditions: solid in RH chamber; morphology and parent:prodrug composition
Procedure: “ND” in Table 2 refers to “No Data”. Purity was determined by HPLC. Melting point was determined by differential scanning calorimetry (“DSC”), and semi-quantitative hygroscopicity was determined in a relative humidity (“RH”) chamber.

[4] = Stability in mouse plasma; format: in vitro ADME; conditions: read-out: Mouse Plasma t1/2
Procedure: as §1, §2, §3

[5] = test system: HT1080 human fibrosarcoma cancer cells; experiment: Anti-tumor activity in HT1080 human fibrosarcoma xenograft with twice daily dosing; format: in vivo; conditions: for animals with no detectable tumors by the end of the study: cohort of ten
Procedure: One million HT1080 cells were implanted subcutaneously in the right flank of female nude mice (Crl:NU-Fox1^nu). When the median tumor volume (MTV) was approximately 209 mm^3, mice were randomized into four cohorts of ten animals. […] All cohorts were dosed twice daily for 7 days. The mice were observed daily for mortality and signs of toxicity. Tumor volumes and body weights were determined from Days 1 to 22. The results are depicted in FIG. 4.

[6] = pH 5.0, 15 minutes at room temperature
[7] = pH 6.8, 15 minutes at room temperature
[8] = pH 7.4, 15 minutes at room temperature
[9] = Example Compounds 44/45 study, 8 mg/kg twice daily for 7 days, Day 9
[10] = Example Compounds 44/45 study, 8 mg/kg twice daily for 7 days, end of the study, Day 22
[11] = Example Compounds 44/45 study, 12 mg/kg twice daily for 7 days, Day 9
[12] = Example Compounds 44/45 study, 12 mg/kg twice daily for 7 days, end of the study, Day 22

For `CC(=O)OC[n+]1cccc(CNC(=O)Nc2ccc(OCCc3ccccc3-c3ccccc3)cc2)c1` [Example 34, 1-[(Acetyloxy)methyl]-3-{[({4-[2-(biphenyl-2-yl)ethoxy]phenyl}carbamoyl)amino]methyl}pyridinium], the half-life at 1 µM [1] was less than 5 min, the solubility at 15 min [2, 6] was 397 µM and the solubility at 15 min [2, 7] was 393 µM. The solubility at 15 min [2, 8] was 399 µM.

Compound `CC(C)(C)C(=O)OC[n+]1cccc(CNC(=O)Nc2ccc(OCCc3ccccc3-c3ccccc3)cc2)c1` [Example 36, 3-{[({4-[2-(Biphenyl-2-yl)ethoxy]phenyl}carbamoyl)amino]methyl}-1-{[(2,2-dimethylpropanoyl)oxy]methyl}pyridinium] has a solubility at 15 min [2, 6] of 601 µM, a solubility at 15 min [2, 7] of 547 µM and a solubility at 15 min [2, 8] of 524 µM. For the same compound, the “Stability at 60° C. and 75% RH” value [3] was “Oiled out at 1 hr No change in composition”.

For `CC(C)C(OC(=O)C(C)(C)C)[n+]1cccc(CNC(=O)Nc2ccc(OCCc3ccccc3-c3ccccc3)cc2)c1` (stereo not drawn) [Example 40, 3-{[({4-[2-(Biphenyl-2-yl)ethoxy]phenyl}carbamoyl)amino]methyl}-1-{1-[(2,2-dimethylpropanoyl)oxy]-2-methylpropyl}pyridinium], the half-life at 1 µM [1] was 399 min, the “Stability at 40° C. and 75% RH” value [3] was “No change in morphology at 14 days, only prodrug observed” and the “Stability at 60° C. and 75% RH” value [3] was “Approximately 5:95 parent to prodrug moiety observed at 14 days”. It also gave a half-life at 1 µM [4] of 53.5 min.

In the case of `CCCC(=O)OC[n+]1cccc(CNC(=O)Nc2ccc(OCCc3ccccc3-c3ccccc3)cc2)c1` [Example 41, 3-{[({4-[2-(Biphenyl-2-yl)ethoxy]phenyl}carbamoyl)amino]methyl}-1-[(butanoyloxy)methyl]pyridinium], the half-life at 1 µM [1] is reported as less than 5 min, the “Stability at 40° C. and 75% RH” value [3] is reported as “No change in morphology at 14 days, only prodrug observed” and the “Stability at 60° C. and 75% RH” value [3] is reported as “Deliquesced at 24 hr No change in composition”. For the same compound, the half-life at 1 µM [4] was less than 5 min.

For `CC(C)C(OC(=O)c1ccccc1)[n+]1cccc(CNC(=O)Nc2ccc(OCCc3ccccc3-c3ccccc3)cc2)c1` (stereo not drawn) [Example 43, 1-[1-(Benzoyloxy)-2-methylpropyl]-3-{[({4-[2-(biphenyl-2-yl)ethoxy]phenyl}carbamoyl)amino]methyl} pyridinium], the half-life at 1 µM [1] was 59.1 min, the “Stability at 40° C. and 75% RH” value [3] was “No change in morphology at 14 days, only prodrug observed” and the “Stability at 60° C. and 75% RH” value [3] was “Approximately 5:95 parent to prodrug observed at 14 days”. The half-life at 1 µM [4] was 29.8 min.

In the case of `CC(C)C(=O)OC[n+]1cccc(CNC(=O)Nc2ccc(OCCc3ccccc3-c3ccccc3)cc2)c1` [Example 44, 3-{[({4-[2-(Biphenyl-2-yl)ethoxy]phenyl}carbamoyl)amino]methyl}-1-{[(2-methylpropanoyl)oxy]methyl}pyridinium], the half-life at 1 µM [1] is reported as less than 5 min, the “animals with no detectable tumors by the end of the study” value ([5]; Example Compounds 44/45 study, 8 mg/kg) is reported as “One” and the “animals with no detectable tumors by the end of the study” value ([5]; Example Compounds 44/45 study, 12 mg/kg) is reported as “three”. It also gave an MTV decrease [5, 9] of 62%, a tumor regression [5, 9] of 62% and an MTV increase [5, 10] of 16%. It also gave a tumor growth inhibition [5, 10] of 95%, an MTV decrease [5, 11] of 67% and a tumor regression [5, 11] of 67%. The MTV decrease [5, 12] was 67%, the tumor regression [5, 12] was 67% and the “anti-tumor activity in the HT1080 xenograft model (summary statement)” value ([5]; administered orally, twice daily, all doses tested) was “significant anti-tumor activity”. For the same compound, the Tolerability ([5]; xenograft mice, all doses tested, orally twice daily) was “well tolerated”, the “Stability at 40° C. and 75% RH” value [3] was “No change in morphology at 14 days, circa 7:93 parent to prodrug” and the “Stability at 60° C. and 75% RH” value [3] was “Deliquesced at 5 days approximately 50:50 parent to prodrug”. The half-life at 1 µM [4] was less than 5 min.

From patent US20150344426A1, “COMPOUNDS AND THERAPEUTIC USES THEREOF” (ALZHEIMER'S INSTITUTE OF AMERICA, INC., priority 2012, published 2015)
